Here are results for 19 compounds from ChEMBL document CHEMBL1139965, “Synthesis and antifungal activities of new fluconazole analogues with azaheterocycle moiety” (2007).

Values after ≈ are worked out from the molar mass of the structure shown.

The test system of experiment [1] is Candida albicans. Put plainly: Antifungal activity against Candida albicans CA980001 by alamar blue assay. The class given is functional. Background: Resazurin is reduced to fluorescent resorufin, in cell work by metabolically active cells.
For experiment [2], the system named is Aspergillus fumigatus. Put plainly: Antifungal activity against Aspergillus fumigatus AF980003 by alamar blue assay. The class given is functional.

As usually defined, the MIC is the smallest concentration in the dilution series that meets the test's criterion for growth inhibition. Low readings indicate greater potency, high ones weaker potency. Turning to `OC(Cn1cncn1)(Cn1nc2ccccc2n1)c1ccc(Cl)cc1Cl` (stereo unspecified), the MIC is 0.01 µg/mL (≈ 0.0257 µM) in experiment [1] and more than 100 µg/mL in experiment [2].
Turning to `O[C@@](Cn1cncn1)(Cn1nnc2ccccc21)c1ccc(F)cc1F`, the MIC in experiment [1] is 0.025 µg/mL (≈ 0.0702 µM); in experiment [2], more than 100 µg/mL.
For the compound `O[C@@](Cn1cncn1)(Cn1ncc2ccccc21)c1ccc(F)cc1F`, the minimum inhibitory concentration (MIC) in experiment [1] turned out to be 0.019 µg/mL (≈ 0.0535 µM); in experiment [2], 24 µg/mL (≈ 67.5 µM).
For `O[C@@](Cn1cncn1)(Cn1ncc2ccccc21)c1ccc(Cl)cc1Cl`, the MIC in experiment [1] was 0.0007 µg/mL (≈ 0.0018 µM); in experiment [2], more than 100 µg/mL.
In the case of `O[C@@](Cn1cncn1)(Cn1nnc2ccccc21)c1ccc(Cl)cc1Cl`, the results for the minimum inhibitory concentration (MIC) in experiment [1] and in experiment [2] were 0.02 µg/mL (≈ 0.0514 µM) and more than 100 µg/mL, respectively.
In the same order, the values of `O[C@@](Cn1cncn1)(Cn1cnc2ccccc21)c1ccc(F)cc1F` are 0.233 µg/mL (≈ 0.656 µM) and more than 100 µg/mL.
As for `O[C@@](Cn1cncn1)(Cn1cnc2ccccc21)c1ccc(Cl)cc1Cl`, the figures for the MIC in experiment [1] and in experiment [2] were 0.026 µg/mL (≈ 0.067 µM) and more than 100 µg/mL, respectively.
For the compound `O[C@@](Cn1cncn1)(Cn1ccc2cccnc21)c1ccc(F)cc1F`, the minimal inhibitory concentration (MIC) is 0.007 µg/mL (≈ 0.0197 µM) in experiment [1] and 21 µg/mL (≈ 59.1 µM) in experiment [2].
Regarding `O[C@@](Cn1cncn1)(Cn1ccc2cccnc21)c1ccc(Cl)cc1Cl`, the MIC was determined as 0.0031 µg/mL (≈ 0.00798 µM) in experiment [1] and 29 µg/mL (≈ 74.7 µM) in experiment [2].
As for `O[C@](CN1CCc2ccccc21)(Cn1cncn1)c1ccc(Cl)cc1Cl`, the minimal inhibitory concentration (MIC) in experiment [1] is 2.72 µg/mL (≈ 6.99 µM); in experiment [2], more than 100 µg/mL.
As to `O[C@](CNc1ccc2[nH]ccc2c1)(Cn1cncn1)c1ccc(Cl)cc1Cl`, the minimum inhibitory concentration (MIC) is 0.026 µg/mL (≈ 0.0646 µM) in experiment [1] and more than 100 µg/mL in experiment [2].
On to `O=Cc1cn(C[C@@](O)(Cn2cncn2)c2ccc(Cl)cc2Cl)c2ccccc12`, for which the MIC is 0.045 µg/mL (≈ 0.108 µM) in experiment [1] and more than 100 µg/mL in experiment [2].
Consider `CCOC(=O)Cc1cn(C[C@@](O)(Cn2cncn2)c2ccc(Cl)cc2Cl)c2ccccc12`, for which the MIC was 0.006 µg/mL (≈ 0.0127 µM) in experiment [1] and more than 100 µg/mL in experiment [2].
For the compound `CCOC(=O)CCc1cn(C[C@@](O)(Cn2cncn2)c2ccc(Cl)cc2Cl)c2ccccc12`, the figures for the MIC in experiment [1] and in experiment [2] were 0.33 µg/mL (≈ 0.677 µM) and more than 100 µg/mL, respectively.
In the same order, the values of `O=C1CCCc2c1ccn2C[C@@](O)(Cn1cncn1)c1ccc(Cl)cc1Cl` are 0.07 µg/mL (≈ 0.173 µM) and more than 100 µg/mL.
For `OC(Cn1cncn1)(Cn1nc2ccccc2n1)c1ccc(F)cc1F` (stereo unspecified) the same measures were more than 0.036 µg/mL and more than 100 µg/mL.
For the compound `C[C@@H]1[C@H](O)[C@@H](C)/C=C/C=C/C=C/C=C/C=C/C=C/C=C/[C@H](O[C@@H]2O[C@H](C)[C@@H](O)[C@H](N)[C@@H]2O)C[C@@H]2O[C@](O)(C[C@@H](O)C[C@@H](O)[C@H](O)CC[C@@H](O)C[C@@H](O)CC(=O)O[C@H]1C)C[C@H](O)[C@H]2C(=O)O` [AMPHOTERICIN B], the MIC in experiment [1] stood at 0.12 µg/mL (≈ 0.13 µM); in experiment [2] it was 0.14 µg/mL (≈ 0.152 µM).
Turning to `OC(Cn1cncn1)(Cn1cncn1)c1ccc(F)cc1F` [FLUCONAZOLE], in experiment [1], the MIC is 0.02 µg/mL (≈ 0.0653 µM).
For `CCC(C)n1ncn(-c2ccc(N3CCN(c4ccc(OCC5COC(Cn6cncn6)(c6ccc(Cl)cc6Cl)O5)cc4)CC3)cc2)c1=O` (stereo unspecified) [ITRACONAZOLE], in experiment [2], the lowest concentration to inhibit growth (MIC) was 0.5 µg/mL (≈ 0.709 µM).
